# Test system: C. deuterogattii ATCC 32609
# Test: Antifungal MIC assay (broth microdilution in YNB)
# Type: cell-based, Cryptococcus deuterogattii
# Details: Cryptococcus deuterogattii, ATCC32609; Table S1; read-out: MIC Cryptococcus deuterogattii ATCC 32609
# Description: (§1) Yeast strains: Candida albicans (ATCC 90028, NCCLS 11), Cryptococcus neoformans (ATCC 208821, H99 type strain), Candida tropicalis (ATCC 750, type strain), Candida glabrata (ATCC 90030, NCCLS 84) and Cryptococcus deuterogattii (ATCC 32609, type strain) were obtained from the American Type Culture Collection (ATCC). Cryptococcus deuterogattii (CBS 7750), Candida auris (CBS 10913) and Candida auris (CBS 12373) were obtained from the CBS‐KNAW culture collection. The strains were maintained on glycerol/YPD (yeast extract‐peptone dextrose) broth (20:80 v/v) at −80 °C.
# (§2) Antifungal minimum inhibitory concentration (MIC) assay: The cobalt complexes and antifungal control compounds were serially diluted in 50 μL of Yeast Nitrogen Broth (YNB; BD, Cat No. 233520 supplemented with 2 % glucose and 10 mM ammonium sulfate) two‐fold across the wells of non‐binding surface (NBS) 96‐well plates (Corning; Cat. No. 3641). Plates were set up in quadruplicate for each strain tested, and two biological replicates were conducted on separate assay days.
# (§3) Yeast strains were cultured from glycerol onto YPD (Becton Dickinson 242720) agar at 30 °C for 72 h. For each strain, a minimum of five single colonies were taken from the agar plate and dissolved in sterile water and adjusted to form a yeast suspension of 1×10^6 to 5×10^6 CFU mL^−1 (as determined by OD530). The suspension was subsequently diluted into YNB media, and added to each well of the compound containing plates, giving a final cell density of 2.5×10^3 CFU mL^−1 and a total volume of 100 μL. Plates were covered and incubated at 35 °C for 36 h without shaking.
# (§4) Growth inhibition of all strains was determined visually where the MIC was recorded as the lowest compound concentration with no visible growth. Fluconazole (Sigma F8929), ketoconazole (Sigma K1003) and micafungin (Sigma SML2288) were used as internal positive inhibitor controls for every strain tested.
row,Compound,MIC [µg/mL]
1,Oc1c(F)cccc1/C=N/CC/N=C/c1cccc(F)c1O [Compound L3],> 30.4
2,CC(/C=C(\O)C(F)(F)F)=N\CC/N=C(C)/C=C(\O)C(F)(F)F [Compound L2],> 33.2
3,CC(=N\NC(N)=S)/C(C)=N/NC(N)=S [Compound L1],> 23.2

# Same assay, conditions: Cryptococcus deuterogattii, ATCC32609; range of MICs, n=8; 35 °C, 36 h, visual; read-out: MIC C. deuterogattii ATCC 32609
row,Compound,MIC [µM]
1,Oc1c(F)cccc1/C=N/CC/N=C/c1cccc(F)c1O [Compound L3],100
2,CC(/C=C(\O)C(F)(F)F)=N\CC/N=C(C)/C=C(\O)C(F)(F)F [Compound L2],> 100
3,CC(=N\NC(N)=S)/C(C)=N/NC(N)=S [Compound L1],> 100

# Test system: C. deuterogattii CBS 7750
# Test: Antifungal MIC assay (broth microdilution in YNB)
# Type: cell-based, Cryptococcus deuterogattii
# Details: Cryptococcus deuterogattii, CBS7750; Table S1; read-out: MIC Cryptococcus deuterogattii CBS 7750
# Description: as §1, §2, §3, §4
row,Compound,MIC [µg/mL]
1,Oc1c(F)cccc1/C=N/CC/N=C/c1cccc(F)c1O [Compound L3],> 30.4
2,CC(/C=C(\O)C(F)(F)F)=N\CC/N=C(C)/C=C(\O)C(F)(F)F [Compound L2],> 33.2
3,CC(=N\NC(N)=S)/C(C)=N/NC(N)=S [Compound L1],> 23.2

# Same assay, conditions: Cryptococcus deuterogattii, CBS7750; range of MICs, n=8; 35 °C, 36 h, visual; read-out: MIC C. deuterogattii CBS 7750
row,Compound,MIC [µM]
1,Oc1c(F)cccc1/C=N/CC/N=C/c1cccc(F)c1O [Compound L3],> 100
2,CC(/C=C(\O)C(F)(F)F)=N\CC/N=C(C)/C=C(\O)C(F)(F)F [Compound L2],> 100
3,CC(=N\NC(N)=S)/C(C)=N/NC(N)=S [Compound L1],> 100

# Test system: not listed separately
# Test: Cytotoxicity assay (resazurin)
# Type: cell-based, human
# Details: human, HEK293 cells (ATCC CRL-1573); 20 h incubation, 0.8–100 μM; read-out: Tox CC50 (cytotoxicity against HEK293 cells)
# Method: Cytotoxicity assay: HEK293 ATCC CRL‐1573 human embryonic kidney cells suspended in DMEM media (Gibco; 11330332) supplemented with 10 % FBS (GE; SH30084.03) and 100 U mL^−1 each penicillin/streptomycin (Invitrogen; 15070063) were counted manually in a Neubauer haemocytometer and seeded into 384‐well, black wall, clear bottom tissue culture plates (Corning; Cat. No. 3712) at 5000 cells per well in a volume of 20 μL. Manually, 20 μL of each compound dilution was plated in duplicate on the cells, for a final concentration range of 0.8–100 μM. The cells were incubated together with the compounds for 20 h at 37 °C, 5 % CO2.
# Cytotoxicity (or cell viability) was measured by fluorescence, ex: 560/10 nm, em: 590/10 nm (F560/590), after addition of 5 μL of 25 μg mL^−1 resazurin ([…]; Sigma R7017) and after further incubation for 3 h at 37 °C in 5 % CO2, using media only as negative control and cells without inhibitors as positive control. CC50 (concentration at 50 % cytotoxicity) were calculated by curve fitting the inhibition values vs. log(concentration) of four replicates using a sigmoidal dose‐response function, with variable fitting values for bottom, top and slope using Prism 8. Tamoxifen (Sigma T5648) was used as internal control on each plate.
row,Compound,CC50 at 20 h [µM]
1,Oc1c(F)cccc1/C=N/CC/N=C/c1cccc(F)c1O [Compound L3],> 100
2,CC(/C=C(\O)C(F)(F)F)=N\CC/N=C(C)/C=C(\O)C(F)(F)F [Compound L2],> 100
3,CC(=N\NC(N)=S)/C(C)=N/NC(N)=S [Compound L1],> 100

# Test system: Escherichia coli ATCC 25922
# Test: CO-ADD bacterial broth microdilution MIC assay
# Type: cell-based
# Details: Escherichia coli, ATCC25922; CAMHB, 37 °C, 18 h, ≥ 80% inhibition; read-out: MIC Ec (Escherichia coli ATCC 25922)
row,Compound,MIC [µg/mL]
1,Oc1c(F)cccc1/C=N/CC/N=C/c1cccc(F)c1O [Compound L3],> 32
2,CC(/C=C(\O)C(F)(F)F)=N\CC/N=C(C)/C=C(\O)C(F)(F)F [Compound L2],> 32
3,CC(=N\NC(N)=S)/C(C)=N/NC(N)=S [Compound L1],> 32

# Test system: Staphylococcus aureus ATCC 43300 (MRSA)
# Test: CO-ADD bacterial broth microdilution MIC assay
# Type: cell-based
# Details: Staphylococcus aureus; CAMHB, 37 °C, 18 h, ≥ 80% inhibition; read-out: MIC Sa (Staphylococcus aureus ATCC 43300, MRSA)
row,Compound,MIC [µg/mL]
1,Oc1c(F)cccc1/C=N/CC/N=C/c1cccc(F)c1O [Compound L3],> 32
2,CC(/C=C(\O)C(F)(F)F)=N\CC/N=C(C)/C=C(\O)C(F)(F)F [Compound L2],> 32
3,CC(=N\NC(N)=S)/C(C)=N/NC(N)=S [Compound L1],> 32
